{"source": "patent US4647586A", "about": "“Pharmaceutical oil-in-water type micro-emulsion” (priority 1984, dated 1987)", "key": {"[1]": {"assay": "Distribution to the tissue", "details": "10 mg/kg tail vein, as 4-biphenylylacetic acid", "quoted_text": "(a) Experimental animals: Wistar-strain male rats (body weight 60-220 g), 6 per group.\nThe rats were periodically killed, and the major organs were extracted. The concentration of the drug in the tissues were measured by the conventional HPLC method."}, "[2]": {"test_system": "brewer's yeast-induced fever", "assay": "Effects on body temperature in pyretic rats (antipyretic activity)", "type": "in vivo, SD-strain male rats", "details": "iv, 17 h, read-out: ED50 (dose reducing body temperature by at least 1.5° C. in 50% of the rats)", "description": "(a) Experimental animals SD-strain male rats (120-185 g).\n(§1) (b) Test drugs: The same as in A-1 [Test 2].\nMale Sprague-Dawley rats, weighing 120-185 g, were injected subcutaneously in the nape of the neck with 2 ml of a 20% suspension of dried brewers yeast in physiological saline. Drugs and vehicles were administered intravenously 17 hours after treatment of yeast suspension. Rectal temperature was recorded with a thermistor type thermometer (Natsume Seisakusho, BMA-77 Type) just prior to drug administration and at 1/2, 1, 2 and 4 hours after drug administration."}, "[3]": {"test_system": "Carrageenin-induced paw edema", "assay": "Carrageenin-induced paw edema in rats [Test 1]", "type": "in vivo, Wistar strain male rats", "description": "A-1: Effect of inhibiting carrageenin-induced paw edema\n(a) Experimental animals: Wistar strain male rats (body weight 160-220 g), 7 per group.\nAs a control drug, an aqueous solution of sodium 4-biphenylylacetate was used.\nThe volume of the left hind paw of each rat was measured with a plethysmometer (supplied by Ugo Basile Company). A 1% carrageenin solution as an inflammation inducer was injected subcutaneously into the left hind paw of each rat to induce paw edema. The volume of the paw of the rat was measured before the administration of carrageenin and every hour after the administration up to 6 hours. […] The test drugs were intravenously administered 2 hours after the injection of carrageenin. The edema inhibition rate were calculated by the following equation. [formula]\nEc: the volume of edema of the control group to which only the solvent was administered at each time (average value)\nEt: the volume of edema in the drug-administered group at each time (average value)"}, "[4]": {"test_system": "Carrageenin-induced paw edema", "assay": "Carrageenin-induced paw edema in rats [Test 2]", "type": "in vivo, SD-strain male rats", "description": "(a) Experimental animals: SD-strain male rats (120-180 g).\nA micro-emulsion containing ethyl 4-biphenylylacetate prepared as in Examples 11, 12, 13 and 14 given hereinafter was administered at a dose of 5 ml per kg of the animals. Venolipid® (Morishita Pharmaceutical Co., Ltd.) was used as a vehicle control. As control drugs, a solution or suspension of ethyl 4-biphenylylacetate in physiological saline containing 0.5% Cremophor EL® (Sigma Chemical Company, a solubilizing agent), 0.2% of polyethylene glycol 400 and 10% of dimethyl sulfoxide, a physiological saline solution of sodium 4-biphenylylacetate and a physiological saline solution of Aspirin DL-lysine [Venopirin®, Green Cross Co.] were used. As the vehicle control of the control drugs, the above solvents were used.\nA 1% carrageenin solution in physiological saline was injected subcutaneously in an amount of 0.05 ml into the planter surface of the left hind paw of each rat via a 25 gauge needle fitted to a 0.25 ml syringe. One hour after carrageenin injection, the rats were randomized on the basis of the edema volume, and intravenous administration of the drugs and vehicles followed immediately. The volume of the left hind paw was measured by a plethysmometer (Ugo Basile) prior to the injection of the carrageenin solution and at 2, 3, 4, 5 and 6 hours after the carrageenin injection. As the volume of edema, an increase in the paw volume was taken.\nThe inhibition percents were calculated in accordance with the same calculation formula as in Test 1."}, "[5]": {"test_system": "abnormal 3-legged gait (brewers yeast-inflamed paw)", "assay": "Reversal of abnormal 3-legged gait in rats (analgesic activity)", "type": "in vivo, SD-strain male rats", "details": "Rattus norvegicus, iv, read-out: ED50 (dose causing at least 50% reversal of gait score in 50% of the rats)", "description": "(a) Experimental animals: SD-strain male rats (120-165 g).\nas §1\nA 40% suspension of dried brewers yeast in physiological saline was injected (0.25 ml/rat) subcutaneously into the planter surface of the left hind paw of each rat. Three hours later, the walking gait on a wire mesh platform was assessed for each rat.\n0 = Normal gait in the presence of a severely\n0.5 = As above, with intermittent mild limping.\n1.0 = Constant limping, but continuous use of\n1.5 = Limping with occasional 3-legged gait\n2.0 = Continous 3-Legged gait and/or only the\nAny rat not showing a gait score of 2 was eliminated from this test. Drugs and vehicles were then administered intravenously. Measurements of the gait were made at 1, 2, 3 and 4 hours after drug administration."}}}
{"molecule": "O=C([O-])Cc1ccc(-c2ccccc2)cc1.[Na+]", "values": [{"measurement": "Tissue concentration at 30 seconds after administration", "setting": "[1]", "result": "concentrations above those at which they showed a pharmacological activity"}, {"measurement": "ED50", "setting": "[2]", "result": 2.6, "unit": "mg/kg"}, {"measurement": "Edema inhibitory effect (inhibition rate, %)", "setting": "[3]; 2.5 mg/kg i.v. as 4-biphenylylacetic acid, 2 hours after carrageenin (time of dosing)", "result": 0, "unit": "%"}, {"measurement": "Edema inhibitory effect (inhibition rate, %)", "setting": "[3]; 2.5 mg/kg i.v. as 4-biphenylylacetic acid, 3 hours after carrageenin", "result": 8.4, "unit": "%"}, {"measurement": "Edema inhibitory effect (inhibition rate, %)", "setting": "[3]; 2.5 mg/kg i.v. as 4-biphenylylacetic acid, 4 hours after carrageenin", "result": 13.2, "unit": "%"}, {"measurement": "Edema inhibitory effect (inhibition rate, %)", "setting": "[3]; 2.5 mg/kg i.v. as 4-biphenylylacetic acid, 5 hours after carrageenin", "result": 17.1, "unit": "%"}, {"measurement": "Edema inhibitory effect (inhibition rate, %)", "setting": "[3]; 2.5 mg/kg i.v. as 4-biphenylylacetic acid, 6 hours after carrageenin", "result": 19.8, "unit": "%"}, {"measurement": "Edema inhibitory effect (inhibition rate, %)", "setting": "[3]; 5.0 mg/kg i.v. as 4-biphenylylacetic acid, 2 hours after carrageenin (time of dosing)", "result": 0, "unit": "%"}, {"measurement": "Edema inhibitory effect (inhibition rate, %)", "setting": "[3]; 5.0 mg/kg i.v. as 4-biphenylylacetic acid, 3 hours after carrageenin", "result": 9.5, "unit": "%"}, {"measurement": "Edema inhibitory effect (inhibition rate, %)", "setting": "[3]; 5.0 mg/kg i.v. as 4-biphenylylacetic acid, 4 hours after carrageenin", "result": 15.1, "unit": "%"}, {"measurement": "Edema inhibitory effect (inhibition rate, %)", "setting": "[3]; 5.0 mg/kg i.v. as 4-biphenylylacetic acid, 5 hours after carrageenin", "result": 17.4, "unit": "%"}, {"measurement": "Edema inhibitory effect (inhibition rate, %)", "setting": "[3]; 5.0 mg/kg i.v. as 4-biphenylylacetic acid, 6 hours after carrageenin", "result": 20.8, "unit": "%"}, {"measurement": "ED20", "setting": "[3]; Rattus norvegicus, iv, 2 h, read-out: ED20 (20% edema inhibitory effect)", "result": 8.5, "unit": "mg/kg"}, {"measurement": "Edema inhibitive effect versus the micro-emulsions", "setting": "[3]; i.v.", "result": "less effect"}, {"measurement": "Inhibition (%)", "setting": "[4]; 1.25 mg/kg i.v. as 4-biphenylylacetic acid, 2 h after carrageenin", "result": 6.6, "unit": "%"}, {"measurement": "Inhibition (%)", "setting": "[4]; 1.25 mg/kg i.v. as 4-biphenylylacetic acid, 3 h after carrageenin", "result": 0, "unit": "%"}, {"measurement": "Inhibition (%)", "setting": "[4]; 1.25 mg/kg i.v. as 4-biphenylylacetic acid, 4 h after carrageenin", "result": 8.5, "unit": "%"}, {"measurement": "Inhibition (%)", "setting": "[4]; 1.25 mg/kg i.v. as 4-biphenylylacetic acid, 5 h after carrageenin", "result": 5.2, "unit": "%"}, {"measurement": "Inhibition (%)", "setting": "[4]; 1.25 mg/kg i.v. as 4-biphenylylacetic acid, 6 h after carrageenin", "result": 6.1, "unit": "%"}, {"measurement": "Inhibition (%)", "setting": "[4]; 2.5 mg/kg i.v. as 4-biphenylylacetic acid, 2 h after carrageenin", "result": "19,7%"}, {"measurement": "Inhibition (%)", "setting": "[4]; 2.5 mg/kg i.v. as 4-biphenylylacetic acid, 3 h after carrageenin", "result": 11.7, "unit": "%"}, {"measurement": "Inhibition (%)", "setting": "[4]; 2.5 mg/kg i.v. as 4-biphenylylacetic acid, 4 h after carrageenin", "result": 18.6, "unit": "%"}, {"measurement": "Inhibition (%)", "setting": "[4]; 2.5 mg/kg i.v. as 4-biphenylylacetic acid, 5 h after carrageenin", "result": 20.7, "unit": "%"}, {"measurement": "Inhibition (%)", "setting": "[4]; 2.5 mg/kg i.v. as 4-biphenylylacetic acid, 6 h after carrageenin", "result": 10.2, "unit": "%"}, {"measurement": "Inhibition (%)", "setting": "[4]; 5.0 mg/kg i.v. as 4-biphenylylacetic acid, 2 h after carrageenin", "result": 9.8, "unit": "%"}, {"measurement": "Inhibition (%)", "setting": "[4]; 5.0 mg/kg i.v. as 4-biphenylylacetic acid, 3 h after carrageenin", "result": 6.6, "unit": "%"}, {"measurement": "Inhibition (%)", "setting": "[4]; 5.0 mg/kg i.v. as 4-biphenylylacetic acid, 4 h after carrageenin", "result": 20.3, "unit": "%"}, {"measurement": "Inhibition (%)", "setting": "[4]; 5.0 mg/kg i.v. as 4-biphenylylacetic acid, 5 h after carrageenin", "result": 19.0, "unit": "%"}, {"measurement": "Inhibition (%)", "setting": "[4]; 5.0 mg/kg i.v. as 4-biphenylylacetic acid, 6 h after carrageenin", "result": 30.6, "unit": "%"}, {"measurement": "Inhibition (%)", "setting": "[4]; 10.0 mg/kg i.v. as 4-biphenylylacetic acid, 2 h after carrageenin", "result": 23.0, "unit": "%"}, {"measurement": "Inhibition (%)", "setting": "[4]; 10.0 mg/kg i.v. as 4-biphenylylacetic acid, 3 h after carrageenin", "result": 28.3, "unit": "%"}, {"measurement": "Inhibition (%)", "setting": "[4]; 10.0 mg/kg i.v. as 4-biphenylylacetic acid, 4 h after carrageenin", "result": 35.6, "unit": "%"}, {"measurement": "Inhibition (%)", "setting": "[4]; 10.0 mg/kg i.v. as 4-biphenylylacetic acid, 5 h after carrageenin", "result": 29.3, "unit": "%"}, {"measurement": "Inhibition (%)", "setting": "[4]; 10.0 mg/kg i.v. as 4-biphenylylacetic acid, 6 h after carrageenin", "result": 30.6, "unit": "%"}, {"measurement": "ED30", "setting": "[4]; Rattus norvegicus, iv, read-out: ED30 (dose required to cause a 30% inhibition of edema volume)", "result": 10.5, "unit": "mg/kg"}, {"measurement": "ED50", "setting": "[5]", "result": 7.1, "unit": "mg/kg"}]}
